SMILES strings stand for the structures.

For this assay, the target named is T1, SIRT1 (Homo sapiens, UniProt Q96EB6).
T1 sequence (Q96EB6 1-747): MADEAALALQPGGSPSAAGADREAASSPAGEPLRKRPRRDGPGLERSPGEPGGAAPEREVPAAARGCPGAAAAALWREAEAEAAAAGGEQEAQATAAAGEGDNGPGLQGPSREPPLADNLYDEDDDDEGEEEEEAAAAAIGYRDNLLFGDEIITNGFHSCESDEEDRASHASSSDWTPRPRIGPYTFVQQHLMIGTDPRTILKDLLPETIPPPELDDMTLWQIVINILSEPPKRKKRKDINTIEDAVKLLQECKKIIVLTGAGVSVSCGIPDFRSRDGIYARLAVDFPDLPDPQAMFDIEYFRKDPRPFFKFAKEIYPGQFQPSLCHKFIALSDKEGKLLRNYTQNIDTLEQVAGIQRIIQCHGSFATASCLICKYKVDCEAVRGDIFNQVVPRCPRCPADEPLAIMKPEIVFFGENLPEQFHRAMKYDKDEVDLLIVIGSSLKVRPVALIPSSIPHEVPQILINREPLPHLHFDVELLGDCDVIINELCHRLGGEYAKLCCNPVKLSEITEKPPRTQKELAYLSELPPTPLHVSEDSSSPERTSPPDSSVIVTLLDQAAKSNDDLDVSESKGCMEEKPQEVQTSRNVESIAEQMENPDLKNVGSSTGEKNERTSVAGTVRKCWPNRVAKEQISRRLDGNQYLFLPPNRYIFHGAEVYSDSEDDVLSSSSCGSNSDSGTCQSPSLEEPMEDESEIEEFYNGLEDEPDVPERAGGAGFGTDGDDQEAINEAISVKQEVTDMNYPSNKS
As to the kind of experiment: Mass spectrometry based SIRT1 deacetylation (activation) assay. The assay is classed as biochemical. The following applies: 0.5 μM peptide substrate, 120 μM βNAD+, 10 nM SIRT1, 25 min at 25° C.; for Emax: 25 min, read-out: % Fold Act. (percent maximum fold activation). From the text:
A mass spectrometry based assay was used to identify modulators of SIRT1 activity. The mass spectrometry based assay utilizes a peptide having 20 amino acid residues as follows: Ac-EE-K(biotin)-GQSTSSHSK(Ac)NleSTEG-K(5TMR)-EE-NH2 (SEQ ID NO: 1) wherein K(Ac) is an acetylated lysine residue and Nle is a norleucine. The peptide is labeled with the fluorophore 5TMR (excitation 540 nm/emission 580 nm) at the C-terminus. The sequence of the peptide substrate is based on p53 with several modifications. In addition, the methionine residue naturally present in the sequence was replaced with the norleucine because the methionine may be susceptible to oxidation during synthesis and purification.
The mass spectrometry assay is conducted as follows: 0.5 μM peptide substrate and 120 μM βNAD^+ is incubated with 10 nM SIRT1 for 25 minutes at 25° C. in a reaction buffer (50 mM Tris-acetate pH 8, 137 mM NaCl, 2.7 mM KCl, 1 mM MgCl2, 5 mM DTT, 0.05% BSA). Test compounds may be added to the reaction as described above. […] After the 25 minute incubation with SIRT1, 10 μL of 10% formic acid is added to stop the reaction. Reactions are sealed and frozen for later mass spec analysis. Determination of the mass of the substrate peptide allows for precise determination of the degree of acetylation (i.e. starting material) as compared to deacetylated peptide (product).
A control for inhibition of sirtuin activity is conducted by adding 1 μL of 500 mM nicotinamide as a negative control at the start of the reaction (e.g., permits determination of maximum sirtuin inhibition). A control for activation of sirtuin activity is conducted using 10 nM of sirtuin protein, with 1 μL of DMSO in place of compound, to determine the amount of deacetylation of the substrate at a given timepoint within the linear range of the assay. This timepoint is the same as that used for test compounds and, within the linear range, the endpoint represents a change in velocity.
For the above assay, SIRT1 protein was expressed and purified as follows. […] The protein was expressed by induction with 1 mM IPTG as an N-terminal His-tag fusion protein at 18° C. overnight and harvested at 30,000×g. Cells were lysed with lysozyme in lysis buffer (50 mM Tris-HCl, 2 mM Tris[2-carboxyethyl]phosphine (TCEP), 10 μM ZnCl2, 200 mM NaCl) and further treated with sonication for 10 min for complete lysis. The protein was purified over a Ni-NTA column (Amersham) and fractions containing pure protein were pooled, concentrated and run over a sizing column (Sephadex S200 26/60 global). The peak containing soluble protein was collected and run on an Ion-exchange column (MonoQ). Gradient elution (200 mM-500 mM NaCl) yielded pure protein. This protein was concentrated and dialyzed against dialysis buffer (20 mM Tris-HCl, 2 mM TCEP) overnight. The protein was aliquoted and frozen at −80° C. until further use.

For `CN(C)CCNc1cc(C(=O)Nc2ccccc2C(=O)Nc2ccccc2S(C)(=O)=O)nc(-c2ccccc2)n1` [Compound 163, 6-(2-(dimethylamino)ethylamino)-N-(2-(2-(methylsulfonyl)phenylcarbamoyl)phenyl)-2-phenylpyrimidine-4-carboxamide], the EC1.5 result was “B (EC1.5>1 and ≦10 uM)”; the Emax lay within 150 to 300%.

On to `CCN(CCN(C)C)c1cc(C(=O)Nc2ccccc2-c2nnc(-c3cccnc3)s2)nc(-c2ccccc2)n1` [Compound 81], for which the EC1.5 entry was “A (EC1.5≦1 uM)” and the Emax was at least 300%.

For the compound `O=C(Nc1ccccc1-c1nncs1)c1cc(OC[C@@H](O)CO)nc(-c2ccccc2)n1` [Compound 110], the EC1.5 result is “A (EC1.5≦1 uM)” and the Emax was at least 300%.

On to `CCN(CCN(C)C)c1cc(C(=O)Nc2ccccc2-c2nnc(C(F)=C3CCOCC3)s2)nc(-c2ccccc2)n1` [Compound 114, 6-((2-(dimethylamino)ethyl)(ethyl)amino)-N-(2-(5-(fluoro(2H-pyran-4(3H,5H,6H)-ylidene)methyl)-1,3,4-thiadiazol-2-yl)phenyl)-2-phenylpyrimidine-4-carboxamide], for which the EC1.5 entry was “A (EC1.5≦1 uM)” and the Emax is at least 300%.

For `COC(=O)c1ccccc1NC(=O)c1cc(NCCN(C)C)nc(-c2ccccc2)n1` [Compound 5], the EC1.5 entry was “A (EC1.5≦1 uM)” and the Emax was at least 300%.

Turning to `CCN(CCN(C)C)c1cc(C(=O)Nc2ccccc2-c2nnc(NS(C)(=O)=O)s2)nc(-c2ccccc2)n1` [Compound 98], the EC1.5 entry is listed as “A (EC1.5≦1 uM)” and the Emax was at least 300%.

For the compound `CCN(CCN(C)C)c1cc(C(=O)Nc2ccccc2C(=O)NC2CCCCC2)nc(-c2ccccc2)n1` [Compound 165, N-(2-(cyclohexylcarbamoyl)phenyl)-6-((2-(dimethylamino)ethyl)(ethyl)amino)-2-phenylpyrimidine-4-carboxamide], the EC1.5 result is recorded as “A (EC1.5≦1 uM)” and the Emax was 150 to 300%.

For `CN(C)CCNc1cc(C(=O)Nc2ccccc2-c2c[nH]c(-c3ccccc3)n2)nc(-c2ccccc2)n1` [Compound 15], the EC1.5 result is reported as “A (EC1.5≦1 uM)” and the Emax was at least 300%.

As to `CCN(CCN(C)C)c1cc(C(=O)Nc2ccccc2-c2nnc(C(=O)N3CCOCC3)s2)nc(-c2ccccc2)n1` [Compound 87], the EC1.5 entry is “A (EC1.5≦1 uM)” and the Emax is at least 300%.

For `CN(C)CCNc1cc(C(=O)Nc2ccccc2-c2nnc(-c3ccccc3)s2)nc(-c2ccccc2)n1` [Compound 25], the EC1.5 result is on record as “A (EC1.5≦1 uM)” and the Emax was in the range of 150 to 300%.

As for `CN(C)CCNc1cc(C(=O)Nc2ccccc2C(=O)N(C)c2ccccc2)nc(-c2ccccc2)n1` [Compound 151, 6-(2-(dimethylamino)ethylamino)-N-(2-(methyl(phenyl)carbamoyl)phenyl)-2-phenylpyrimidine-4-carboxamide], the EC1.5 entry is on record as “C (EC1.5>10 uM)” and the Emax is 150 to 300%.

Consider `CCN(CCN(C)C)c1cc(C(=O)Nc2ccccc2-c2nnc(SC)s2)nc(-c2ccccc2)n1` [Compound 115], for which the EC1.5 result is reported as “A (EC1.5≦1 uM)” and the Emax was at least 300%.

As to `CN(C)CCNc1cc(C(=O)Nc2ccccc2)nc(-c2ccccc2)n1` [Compound 6], the EC1.5 entry was “C (EC1.5>10 uM)” and the Emax was 150 to 300%.

Regarding `CNC(=O)c1ccccc1NC(=O)c1cc(NCCN(C)C)nc(-c2ccccc2)n1` [Compound 125, 6-(2-(dimethylamino)ethylamino)-N-(2-(methylcarbamoyl)phenyl)-2-phenylpyrimidine-4-carboxamide], the EC1.5 entry is “B (EC1.5>1 and ≦10 uM)”; the Emax is at least 300%.

Take `O=C(Nc1ccccc1-c1nncs1)c1cc(NC(CO)CO)nc(-c2ccccc2)n1` [Compound 99]: the EC1.5 result is reported as “A (EC1.5≦1 uM)” and the Emax is at least 300%.

Consider `CN(C)CCNc1cc(C(=O)Nc2ccccc2C(=O)Nc2ccccc2C(N)=O)nc(-c2ccccc2)n1` [Compound 150, N-(2-(2-carbamoylphenylcarbamoyl)phenyl)-6-(2-(dimethylamino)ethylamino)-2-phenylpyrimidine-4-carboxamide], for which the EC1.5 entry is recorded as “A (EC1.5≦1 uM)” and the Emax is at least 300%.

Turning to `CC(C)C(=O)c1ccccc1NC(=O)c1cc(NCCN(C)C)nc(-c2ccccc2)n1` [Compound 142], the EC1.5 entry is “B (EC1.5>1 and ≦10 uM)”; the Emax lay within 150 to 300%.

Turning to `CCN(CCN(C)C)c1cc(C(=O)Nc2ccccc2-c2nnc(NC(=O)N3CCOCC3)s2)nc(-c2ccccc2)n1` [Compound 113], the EC1.5 result is “A (EC1.5≦1 uM)” and the Emax is at least 300%.

In the case of `CCN(CCN(C)C)c1cc(C(=O)Nc2ccccc2-c2nnc(C(N)=O)s2)nc(-c2ccccc2)n1` [Compound 71], the EC1.5 entry is on record as “A (EC1.5≦1 uM)” and the Emax was 150 to 300%.

In the case of `CCOC(=O)c1nnc(-c2ccccc2NC(=O)c2cc(N(CC)CCN(C)C)nc(-c3ccccc3)n2)s1` [Compound 59], the EC1.5 entry was “A (EC1.5≦1 uM)” and the Emax is 150 to 300%.

Turning to `CN(C)CCNc1cc(C(=O)Nc2ccccc2C(=O)Nc2ccc(C(N)=O)cc2)nc(-c2ccccc2)n1` [Compound 157, N-(2-(4-carbamoylphenylcarbamoyl)phenyl)-6-(2-(dimethylamino)ethylamino)-2-phenylpyrimidine-4-carboxamide], the EC1.5 result is listed as “A (EC1.5≦1 uM)” and the Emax lay within 150 to 300%.

As to `CCN(CCOC)c1cc(C(=O)Nc2ccccc2-c2ncc(C(C)(C)C)o2)nc(-c2ccccc2)c1` [Compound 85], the EC1.5 entry is “A (EC1.5≦1 uM)” and the Emax is at least 300%.

In the case of `O=C(Nc1ccccc1-c1nncs1)c1cc(OCC(O)CO)nc(-c2ccccc2)n1` (centres unmarked) [Compound 111], the EC1.5 result was “A (EC1.5≦1 uM)” and the Emax was at least 300%.

For `CN(C)CCNc1cc(C(=O)Nc2ccccc2-c2nnc(-c3ccccc3)s2)nc(-c2ccccc2)c1` [Compound 33], the EC1.5 entry is listed as “A (EC1.5≦1 uM)” and the Emax was at least 300%.

On to `CCN(CCOC)c1cc(C(=O)Nc2ccccc2-c2nnc(N3CCOCC3)s2)nc(-c2ccccc2)n1` [Compound 107], for which the EC1.5 entry was “A (EC1.5≦1 uM)” and the Emax lay within 150 to 300%.

For the compound `NC(=O)c1nnc(-c2ccccc2NC(=O)c2cc(N3CCNCC3)nc(-c3ccccc3)n2)s1` [Compound 67], the EC1.5 result is “A (EC1.5≦1 uM)” and the Emax lay in the range of 150 to 300%.

As to `CNCCN(C)c1cc(C(=O)Nc2ccccc2-c2nnc(-c3ccccc3)s2)nc(-c2ccccc2)n1` [Compound 32], the EC1.5 result is “A (EC1.5≦1 uM)” and the Emax was at least 300%.

Take `CC(=O)c1ccccc1NC(=O)c1cc(NC2CCN(C(C)C)CC2)nc(-c2ccccc2)n1` [Compound 137]: the EC1.5 result is given as “A (EC1.5≦1 uM)” and the Emax is at least 300%.
